Assay results taken from ChEMBL document CHEMBL3885881, “DrugMatrix”.

Species: Rattus norvegicus
Test: DrugMatrix - Regimen: Daily Repeat
Assay type: toxicity, organism-based, Sprague-Dawley
Parameters: regimen Daily Repeat, gender Male, age 6-8 weeks
Conditions: in vivo, po, route oral GAVAGE, vehicle .5 % CMC; for ABSOLUTE BASOPHIL / ABSOLUTE EOSINOPHIL / ABSOLUTE LYMPHOCYTE / ABSOLUTE MONOCYTE / ABSOLUTE SEGMENTED NEUTROPHIL / BASOPHIL / EOSINOPHIL / ERYTHROCYTE COUNT / HEMATOCRIT / HEMOGLOBIN / LEUKOCYTE COUNT / LYMPHOCYTE / MEAN CORPUSCULAR HEMOGLOBIN / MEAN CORPUSCULAR HEMOGLOBIN CONCENTRATION / MEAN CORPUSCULAR VOLUME / MONOCYTE / NEUTROPHIL / NUCLEATED RED BLOOD CELLS / PLATELET COUNT: tissue Blood; for ALANINE AMINOTRANSFERASE / ALBUMIN / ALKALINE PHOSPHATASE / ASPARTATE AMINOTRANSFERASE / BLOOD UREA NITROGEN / CARBON DIOXIDE / CHLORIDE / CHOLESTEROL / CREATINE PHOSPHOKINASE / CREATININE / GLUCOSE / LACTATE DEHYDROGENASE / LIPASE / PHOSPHORUS / POTASSIUM / SODIUM / TOTAL BILIRUBIN / TOTAL PROTEIN / URIC ACID: tissue Plasma
[1] = 10 mg/kg, 72 h, dose level Low, time 3 day
[2] = 10 mg/kg, 120 h, dose level Low, time 5 day
[3] = 1500 mg/kg, 72 h, dose level High, time 3 day
[4] = 1500 mg/kg, 120 h, dose level High, time 5 day

NS(=O)(=O)c1cc2c(cc1Cl)NCNS2(=O)=O [HYDROCHLOROTHIAZIDE]
ABSOLUTE BASOPHIL [1]: 0 CELLS/uL
ABSOLUTE EOSINOPHIL [1]: 69 CELLS/uL
ABSOLUTE LYMPHOCYTE [1]: 10610.67 CELLS/uL
ABSOLUTE MONOCYTE [1]: 107.67 CELLS/uL
ABSOLUTE SEGMENTED NEUTROPHIL [1]: 3446 CELLS/uL
BASOPHIL [1]: 0%
EOSINOPHIL [1]: 0.33%
ERYTHROCYTE COUNT [1]: 5.79 x10E6/uL
HEMATOCRIT [1]: 34.73%
HEMOGLOBIN [1]: 13.77 G/DL
LEUKOCYTE COUNT [1]: 14.23 x10E3/uL
LYMPHOCYTE [1]: 77.33%
MEAN CORPUSCULAR HEMOGLOBIN [1]: 23.8 pg
MEAN CORPUSCULAR HEMOGLOBIN CONCENTRATION [1]: 39.67 G/DL
MEAN CORPUSCULAR VOLUME [1]: 60.07 fL
MONOCYTE [1]: 1%
NEUTROPHIL [1]: 21.33%
NUCLEATED RED BLOOD CELLS [1]: 0 /100WBC
PLATELET COUNT [1]: 1306 x10E3/uL
ALANINE AMINOTRANSFERASE [1]: 49 u/L
ALBUMIN [1]: 4.17 G/DL
ALKALINE PHOSPHATASE [1]: 352 u/L
ASPARTATE AMINOTRANSFERASE [1]: 90.67 u/L
BLOOD UREA NITROGEN [1]: 14.33 mg/dL
CARBON DIOXIDE [1]: 24.33 mmol/L
CHLORIDE [1]: 103 MEQ/L
CHOLESTEROL [1]: 65.67 mg/dL
CREATINE PHOSPHOKINASE [1]: 517.67 u/L
CREATININE [1]: 0.15 mg/dL
GLUCOSE [1]: 149.33 mg/dL
LACTATE DEHYDROGENASE [1]: 306.67 u/L
LIPASE [1]: 10 u/L
PHOSPHORUS [1]: 12.73 mg/dL
POTASSIUM [1]: 6.56 MEQ/L
SODIUM [1]: 144.2 MEQ/L
TOTAL BILIRUBIN [1]: 0.2 mg/dL
TOTAL PROTEIN [1]: 5.87 G/DL
URIC ACID [1]: 2.5 mg/dL
ABSOLUTE BASOPHIL [2]: 0 CELLS/uL
ABSOLUTE EOSINOPHIL [2]: 0 CELLS/uL
ABSOLUTE LYMPHOCYTE [2]: 12129.67 CELLS/uL
ABSOLUTE MONOCYTE [2]: 37.67 CELLS/uL
ABSOLUTE SEGMENTED NEUTROPHIL [2]: 1466 CELLS/uL
BASOPHIL [2]: 0%
EOSINOPHIL [2]: 0%
ERYTHROCYTE COUNT [2]: 5.92 x10E6/uL
HEMATOCRIT [2]: 36.07%
HEMOGLOBIN [2]: 14.23 G/DL
LEUKOCYTE COUNT [2]: 13.63 x10E3/uL
LYMPHOCYTE [2]: 89.67%
MEAN CORPUSCULAR HEMOGLOBIN [2]: 24.03 pg
MEAN CORPUSCULAR HEMOGLOBIN CONCENTRATION [2]: 39.47 G/DL
MEAN CORPUSCULAR VOLUME [2]: 60.83 fL
MONOCYTE [2]: 0.33%
NEUTROPHIL [2]: 10%
NUCLEATED RED BLOOD CELLS [2]: 0 /100WBC
PLATELET COUNT [2]: 1189.67 x10E3/uL
ALANINE AMINOTRANSFERASE [2]: 46 u/L
ALBUMIN [2]: 4.07 G/DL
ALKALINE PHOSPHATASE [2]: 390.67 u/L
ASPARTATE AMINOTRANSFERASE [2]: 89.67 u/L
BLOOD UREA NITROGEN [2]: 13.67 mg/dL
CARBON DIOXIDE [2]: 25.33 mmol/L
CHLORIDE [2]: 101.67 MEQ/L
CHOLESTEROL [2]: 62 mg/dL
CREATINE PHOSPHOKINASE [2]: 269.33 u/L
CREATININE [2]: 0.2 mg/dL
GLUCOSE [2]: 162.33 mg/dL
LACTATE DEHYDROGENASE [2]: 281.67 u/L
LIPASE [2]: 9 u/L
PHOSPHORUS [2]: 11.27 mg/dL
POTASSIUM [2]: 6.59 MEQ/L
SODIUM [2]: 143.33 MEQ/L
TOTAL BILIRUBIN [2]: 0.17 mg/dL
TOTAL PROTEIN [2]: 5.83 G/DL
URIC ACID [2]: 2 mg/dL
ABSOLUTE BASOPHIL [3]: 0 CELLS/uL
ABSOLUTE EOSINOPHIL [3]: 0 CELLS/uL
ABSOLUTE LYMPHOCYTE [3]: 11188.67 CELLS/uL
ABSOLUTE MONOCYTE [3]: 0 CELLS/uL
ABSOLUTE SEGMENTED NEUTROPHIL [3]: 1278 CELLS/uL
BASOPHIL [3]: 0%
EOSINOPHIL [3]: 0%
ERYTHROCYTE COUNT [3]: 5.96 x10E6/uL
HEMATOCRIT [3]: 35.57%
HEMOGLOBIN [3]: 13.93 G/DL
LEUKOCYTE COUNT [3]: 12.47 x10E3/uL
LYMPHOCYTE [3]: 90%
MEAN CORPUSCULAR HEMOGLOBIN [3]: 23.43 pg
MEAN CORPUSCULAR HEMOGLOBIN CONCENTRATION [3]: 39.2 G/DL
MEAN CORPUSCULAR VOLUME [3]: 59.7 fL
MONOCYTE [3]: 0%
NEUTROPHIL [3]: 10%
NUCLEATED RED BLOOD CELLS [3]: 0.67 /100WBC
PLATELET COUNT [3]: 1140 x10E3/uL
ALANINE AMINOTRANSFERASE [3]: 52.67 u/L
ALBUMIN [3]: 4.17 G/DL
ALKALINE PHOSPHATASE [3]: 353.33 u/L
ASPARTATE AMINOTRANSFERASE [3]: 88.33 u/L
BLOOD UREA NITROGEN [3]: 19 mg/dL
CARBON DIOXIDE [3]: 31 mmol/L
CHLORIDE [3]: 95.33 MEQ/L
CHOLESTEROL [3]: 70.67 mg/dL
CREATININE [3]: 0.2 mg/dL
GLUCOSE [3]: 159.33 mg/dL
LACTATE DEHYDROGENASE [3]: 413 u/L
LIPASE [3]: 9.67 u/L
PHOSPHORUS [3]: 11.27 mg/dL
POTASSIUM [3]: 5.57 MEQ/L
SODIUM [3]: 141.57 MEQ/L
TOTAL BILIRUBIN [3]: 0.17 mg/dL
TOTAL PROTEIN [3]: 5.8 G/DL
URIC ACID [3]: 1.43 mg/dL
ABSOLUTE BASOPHIL [4]: 0 CELLS/uL
ABSOLUTE EOSINOPHIL [4]: 84 CELLS/uL
ABSOLUTE LYMPHOCYTE [4]: 12827 CELLS/uL
ABSOLUTE MONOCYTE [4]: 104 CELLS/uL
ABSOLUTE SEGMENTED NEUTROPHIL [4]: 1585 CELLS/uL
BASOPHIL [4]: 0%
EOSINOPHIL [4]: 0.67%
ERYTHROCYTE COUNT [4]: 5.59 x10E6/uL
HEMATOCRIT [4]: 33.87%
HEMOGLOBIN [4]: 13.63 G/DL
LEUKOCYTE COUNT [4]: 14.6 x10E3/uL
LYMPHOCYTE [4]: 88%
MEAN CORPUSCULAR HEMOGLOBIN [4]: 24.4 pg
MEAN CORPUSCULAR HEMOGLOBIN CONCENTRATION [4]: 40.23 G/DL
MEAN CORPUSCULAR VOLUME [4]: 60.63 fL
MONOCYTE [4]: 0.67%
NEUTROPHIL [4]: 10.67%
NUCLEATED RED BLOOD CELLS [4]: 0 /100WBC
PLATELET COUNT [4]: 1221.67 x10E3/uL
ALANINE AMINOTRANSFERASE [4]: 64.67 u/L
ALBUMIN [4]: 4.33 G/DL
ALKALINE PHOSPHATASE [4]: 393 u/L
ASPARTATE AMINOTRANSFERASE [4]: 80 u/L
BLOOD UREA NITROGEN [4]: 20 mg/dL
CARBON DIOXIDE [4]: 31.33 mmol/L
CHLORIDE [4]: 97 MEQ/L
CHOLESTEROL [4]: 69 mg/dL
CREATINE PHOSPHOKINASE [4]: 157.67 u/L
CREATININE [4]: 0.2 mg/dL
GLUCOSE [4]: 153.33 mg/dL
LACTATE DEHYDROGENASE [4]: 110.33 u/L
LIPASE [4]: 10 u/L
PHOSPHORUS [4]: 12.1 mg/dL
POTASSIUM [4]: 6.18 MEQ/L
SODIUM [4]: 144.7 MEQ/L
TOTAL BILIRUBIN [4]: 0.2 mg/dL
TOTAL PROTEIN [4]: 5.97 G/DL
URIC ACID [4]: 1.57 mg/dL
